For experiment [1], the target named is T1, A1 receptor (Sus scrofa, UniProt I3LEN5).
T1 sequence (I3LEN5 1-326): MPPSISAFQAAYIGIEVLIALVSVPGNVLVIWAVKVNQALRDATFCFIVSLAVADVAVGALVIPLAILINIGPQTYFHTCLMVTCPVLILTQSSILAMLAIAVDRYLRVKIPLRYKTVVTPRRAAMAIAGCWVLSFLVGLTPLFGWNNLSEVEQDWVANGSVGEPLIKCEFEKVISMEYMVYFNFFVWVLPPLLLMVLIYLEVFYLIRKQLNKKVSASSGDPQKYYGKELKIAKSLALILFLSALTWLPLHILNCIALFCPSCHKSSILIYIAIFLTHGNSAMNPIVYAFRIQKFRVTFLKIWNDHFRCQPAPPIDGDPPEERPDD
The experiment in a line: biochemical.
Protocol: (§1) Pig striatal membranes were prepared as previously described by H. Bruns et al. in Molecular Pharmacology 29 (1986) pages 331-344. ^3H-NECA, a non-selective adenosine receptor agonist was used to label both A1 and A2 receptors. IC50 values were derived from the displacement curves by weighted non-linear least-square curve fitting to the Langmuir equation and pKD values calculated.

For a further experiment, the target named is T2, A2 receptor (Sus scrofa, UniProt K9IW67).
T2 construct: Pig striatal membranes were prepared as previously described; from tissue; host or cells: pig striatum (membranes)
T2 sequence (K9IW67 1-409): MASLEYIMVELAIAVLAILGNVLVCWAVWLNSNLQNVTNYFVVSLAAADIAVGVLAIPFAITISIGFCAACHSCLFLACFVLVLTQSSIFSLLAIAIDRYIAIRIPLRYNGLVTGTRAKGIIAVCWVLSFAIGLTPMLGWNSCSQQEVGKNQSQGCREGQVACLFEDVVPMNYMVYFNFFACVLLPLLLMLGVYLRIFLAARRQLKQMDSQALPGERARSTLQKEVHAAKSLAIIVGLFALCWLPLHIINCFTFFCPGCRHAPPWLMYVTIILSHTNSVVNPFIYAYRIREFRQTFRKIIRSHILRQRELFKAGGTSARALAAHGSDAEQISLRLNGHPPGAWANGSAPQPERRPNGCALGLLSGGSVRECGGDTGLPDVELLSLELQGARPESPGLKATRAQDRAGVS
The experiment in a line: Affinity for adenosine receptors, displacement of 3H-NECA binding in striatal membranes (A2). Further details: species or system Pig. On the technique in general: Displacement assays read how much labelled ligand stays bound in the presence of the test substance.

The subject of experiment [2] is A1 receptor. The settings on record: ratio of A2 KD to A1 KD, pig striatal membranes.
Protocol: as §1
The nature of experiment [3]: Plasma free fatty acids and triglycerides in the monkey (dyslipidemias with elevated serum triglycerides). It is filed as in vivo. The settings on record: Rhesus monkey. The source says:
Several studies have shown a positive correlation between serum triglyceride levels and the risk for coronary heart disease (CHD) (Grundy, in Cholesterol and Atherosclerosis: Diagnosis and Treatment, Lippincott, Philadelphia (1990)). The value of reducing elevated triglyceride levels as an approach to reducing the risk of CHD emerged from the Helsinki Heart Study where, following treatment with gemfibrozil, the greatest reduction in serious coronary events occured in Type IIB hyperlipidemic patients in whom both LDL-cholesterol and total serum triglycerides were elevated.

Read-outs that look alike come from different tables or passages of the source.

We go through three compounds from EP0490818B1, “6-CYCLOHEXYL-2'-0-METHYL-ADENOSINE HYDRATE AND USES THEREOF” (Novartis AG, priority 1990, dated 1992).

Usually Kd stands for the concentration at which binding is half-saturated.

Protocol for A2 receptor: as §1

Regarding `CCNC(=O)[C@H]1O[C@@H](n2cnc3c(N)nc(NCCc4ccc(CCC(=O)O)cc4)nc32)[C@H](O)[C@@H]1O` [CGS 21680, 2-[p-(2-Carboxyethyl)phenethylamino]-5'-N-ethyl carboxamido-adenosine], binding at A1 receptor [1] was put at a Kd of 4360 ± 1080 nM.
Regarding `Nc1nc(Nc2ccccc2)nc2c1ncn2[C@@H]1O[C@H](CO)[C@@H](O)[C@H]1O` [CV 1808, 2-Phenylaminoadenosine, reference compound], the Kd at A2 receptor (Pig striatal membranes, 3H-NECA label, mean ± spread, read-out: A2 (KD;nM)) stood at 269 ± 70 nM; on A1 receptor [1], 2460 ± 757 nM. For the same compound, in the experiment with A1 receptor [2], the “A1:A2 selectivity” value stood at 0.1.
`CO[C@@H]1[C@H](O)[C@@H](CO)O[C@H]1n1cnc2c(NC3CCCCC3)ncnc21` [Compound No. 7 1.5 H2O, 6-cyclohexyl-2'-O-methyl-adenosine 1.5 hydrate] returned a Kd on A2 receptor of 24500 ± 5160 nM. Besides, in experiment [3], the “plasma free fatty acids” value was “substantial and long-lasting falls”; the plasma triglycerides result was “substantial and long-lasting falls”. The “A1:A2 selectivity” value in the experiment with A1 receptor [2] stood at 1090. The compound also gave a Kd at A1 receptor [1] of 23 ± 2 nM.
